Patent publication US9974763B2, “Modulators of intracellular chloride concentration for treating neurodegenerative diseases with Parkinsonian Syndromes” (B & A THERAPEUTICS, priority 2013, dated 2018)
Like-named read-outs stand apart in the source and are kept apart here. Values belong to the molecule of their own block, whether it stands above or below them.

Assays:
[1] = tested on: patient suffering from Parkinson's disease; conditions: for UPDRS motor severity score (III) in the OFF stage: after 2 months of bumetanide, last four weeks at 5 mg/d; for UPDRS II OFF (activities of daily leaving, worst condition) score: at the end of the study
Excerpt: A person, suffering from a 10-year history of Parkinson's disease was included in an open-labeled trial assessing the antiparkinsonian effects of bumetanide. They gave their informed consent to participate. The patient fulfilled the modified Queen's Square Brain Bank criteria of Parkinson's disease (Berardelli et al., 2013). […] Parkinson's disease was at the stage of motor fluctuation and dyskinesia. The OFF periods (bad mobility) lasted for an average of 25-50% of the awakened time. Dyskinesia was mild and intermittent. There was no marked balance impairment or cognitive decline. Antiparkinsonian treatment consisted in: L-DOPA 1,200 mg/d (7 intakes/d), ropinirole 4 mg/d, rasagiline 1 mg/d, tolcapone 300 mg/d. They also received mianserine, citalopram and alprazolam for concomitant anxiety and depression. Bumetanide was progressively titrated up to 3 mg/d (once daily) received for a month. […] The patient was assessed before, 1 month and 2 months after the initiation of bumetanide. At each visit, the patient was asked about any side effects having occurred since the last visit. […] The antiparkinsonian treatment was unchanged during the study. A person, having a 8-year history of Parkinson's disease was included in an open-labeled trial assessing the antiparkinsonian effects of bumetanide. The OFF periods (bad mobility) lasted for an average of 25-50% of the awakened time. Antiparkinsonian treatment consisted in: L-DOPA 625 mg/day (5 intakes/day), entacapone 1,000 mg/day, ropinirole 12 mg/day. Bumetanide: was progressively titrated up to 3 mg/day (once daily) received for a month. […] The patients were assessed before, 1 month and 2 months after the initiation of bumetanide. At each visit, the patient was asked about any side effects having occurred since the last visit. […] The antiparkinsonian treatment was unchanged during the study.

[2] = tested on: GABAA sPSCs in Medium Spiny Neurons (MSNs) of the striatum in Pink 1 knockout mice; assay: Whole-cell voltage-clamp recordings of spontaneous GABAA currents in basal ganglia slices before and during bath application of bumetanide; type: cell-based, mouse; conditions: for effect on the giant GABAergic pattern (in words): 10 μM; for area gigantic pattern (% of the total area) / giant GABAA sPSCs share of total current charge, Mean: before bumetanide 38±5%; for Giants Amplitude, Mean: P=0.01 vs before bumetanide
Method: Pink 1 knockout (Pink1 −/−) mouse is a genetic model of Parkinson's disease.
Pink1 −/− mutant mice of either sex at age 5-7 months were intracardially perfused with the choline solution (see below) at 4° C. and sacrificed by decapitation under halothane anesthesia. Oblique parasagittal slices (380 μm thick) were cut with an angle of 10±2° to obtain the basal ganglia slice (BGS) as described in (Beurrier et al., 2006). For the slicing procedure, the ice-cold oxygenated solution contained (in mM) 110 choline, 2.5 KCl, 1.25 NaH2PO4, 7 MgCl2, 0.5 CaCl2, 25 NaHCO3, 7 glucose. During the recovery period, BGS were placed at room temperature with standard artificial cerebrospinal fluid (ACSF) saturated with 95% O2 5% CO2 and containing (in mM): 126 NaCl, 3.5 KCl, 1.2 NaH2PO4, 1.3 MgCl2, 2 CaCl2, 25 NaHCO3, 11 glucose.
All recordings were made at 32° C. Cells were visualized with infrared-differential interference optics (Axioskop2, Zeiss). For whole-cell voltage-clamp recordings of postsynaptic GABAA currents, the pipette (6-10 MΩ) contained (in mM): 128.5 K-gluconate, 11.5 KCl, 1 CaCl2, 10 EGTA, 10 HEPES, 2.5 MgATP and 0.3 NaGTP, pH 7.32, 280 mOsm. The KGlu pipette solutions gave a reversal potential for chloride close to −63 mV at 35° C. Biocytin (Sigma, 5 mg/ml) was added to the pipette solution and osmolarity corrected when necessary. We performed patch-clamp recordings in whole cell configuration using the Digidata 1344A interface, the Multiclamp 700A amplifier and PClamp8 software (Axon Instruments, Foster City, Calif.). We identified medium spiny neurons (MSNs) during recordings based on their typical rectification during hyperpolarizing steps and their firing delay in response to depolarizing steps. MSNs were also identified by their morphological characteristics after the recording session (see immunocytochemistry). We measured spontaneous GABAA currents (GABAA sPSCs) from MSNs in voltage clamp mode at the reversal potential for glutamatergic (+10 mV) events (Cossart et al., 2000). These currents were stored on Pclamp8 (Axon Instruments, Foster City, Calif., USA) and analyzed off-line with Mini Analysis program (Synaptosoft 6.0, CA, USA), Clampfit 9.2, Origin 5.0 and Autosignal 1.7 to determine the frequency and amplitude of GABAA sPSCs. All detected currents were then visually inspected to reject artefactual events.
We defined as a burst a minimum of five sPSCs associated with a baseline elevation. More than five giant events and three bursts were required during the three min analysis for the pattern to be deemed “oscillatory”. The current charge was automatically calculated by the Mini Analysis Software as the area under the curve value (taking the onset, peak and decay time points as references for each event).
GABAA sPSCs were recorded from identified MSNs before and during bath application of Bumetanide.
For statistical comparison of data we performed paired t-tests. Error bars indicate SEM. ***P<0.001; ns (non-significant).

[3] = tested on: GABAA sPSCs in Medium Spiny Neurons (MSNs) of the striatum in Pink 1 knockout mice; conditions: Dehorter et al 2012; cited from earlier work
[4] = bumetanide 10 μM, 15-30 min, Pink1 KO MSNs
[5] = bumetanide 10 μM, 15-30 min, Pink1 KO MSNs, listed as Bume
[6] = bumetanide 10 μM, 15-30 min, n=42 events
[7] = bumetanide 10 μM, 15-30 min, three min analysis

dyskinesia ([1]; human, in vivo): no worsening
Compound: CCCCNc1cc(C(=O)O)cc(S(N)(=O)=O)c1Oc1ccccc1 [Bumetanide, bumetanide]
overall improvement evaluated by the patient and the caregiver ([1]; patient 1): about 30%
improvement (decrease) of UPDRS motor (III) score in the OFF stage ([1]; patient 1, 2 months vs before treatment): 34%
UPDRS motor severity score (III) in the OFF stage ([1]; patient 1, 44 before treatment): 29
motor condition / Parkinsonism as noticed by the patient and their caregiver ([1]; patient 1, after 2 weeks at 5 mg/d): marked improvement
OFF time duration ([1]; patient 1, after 2 weeks at 5 mg/d, baseline 25-50%): less than 25 % of the awakened time
UPDRS II OFF (activities of daily leaving, worst condition) score ([1]; patient 1, 30 at baseline): 18
improvement (decrease) of UPDRS II in the worst condition ([1]; patient 1, end of study vs baseline): 40%
UPDRS II in the best condition ([1]; patient 1, score 0): unchanged
improvement of UPDRS motor severity score (III) in the OFF stage ([1]; patient 2, 2 months vs before treatment): 56%
UPDRS II in the best condition ([1]; patient 2, 2 vs 3): unchanged
UPDRS motor severity score (III) in the OFF stage ([1]; patient 2, 25 before treatment): 11
UPDRS II OFF (activities of daily leaving, worst condition) score ([1]; patient 2, 15 at baseline): 10
improvement of UPDRS II in the worst condition ([1]; patient 2, end of study vs baseline): 33%
effect on the giant GABAergic pattern (in words) ([2]; 15-30 min, Pink1 KO MSNs): blocked the giant pattern
effect on the giant GABAergic pattern (in words) ([2]; 15-30 min, Pink1 KO MSNs, listed as bumetanide): block these gigantic currents completely
time of treatment after which the effect was stable ([2]; bath application, final concentration 10 μM): 15 min
TOTAL AREA, Mean ([2]; bumetanide 10 μM bath, 15-30 min, Pink1 KO MSNs with giant pattern, VH=+10 mV): 290 pA · ms
Pink1 KO MSNs showing giant GABAA PSCs in which the block was observed ([2]; bumetanide 10 μM, 15-30 min): 10/10
effect on bursts of GABAA sPSCs (in words) ([2]; bumetanide 10 μM, 15-30 min): totally disappeared
mean frequency of single giant GABAA sPSCs ([2]; bumetanide 10 μM, 15-30 min, P=0.02 vs before bumetanide): 0.10±0.05 Hz
Tonic pattern: Amplitude of GABAA PSCs, Mean [2, 4]: 36±4 pA
Tonic pattern: Frequency of GABAA PSCs, Mean [2, 4]: 2.9±0.5 Hz
mean total current charge ([2]; bumetanide 10 μM, 15-30 min, Pink1 KO MSNs, before bumetanide 566±74): 290±70 nA·ms
Tonic pattern: Amplitude of GABAA PSCs, Mean [2, 5]: 36.0 pA
Tonic pattern: Frequency of GABAA PSCs, Mean [2, 5]: 2.9 Hz
basal events between giants, share of the total current charge ([2]; bumetanide 10 μM, 15-30 min, before 62±5%, P=0.0003): 90±3%
area gigantic pattern (% of the total area) / giant GABAA sPSCs share of total current charge, Mean ([2]; bumetanide 10 μM, 15-30 min, P=0.0003): 11.7±3.9%
area gigantic pattern (% of the total area) / giant GABAA sPSCs share of total current charge, Mean ([2]; bumetanide 10 μM, 15-30 min, P=0.0003, listed as Bume): 11.7%
range of amplitude of single giant GABAA sPSCs [2, 6]: 203-593 pA
Giants Amplitude, Mean [2, 6]: 338.2±22.5 pA
Giants Amplitude, Mean ([2]; bumetanide 10 μM, 15-30 min, n=42 events, listed as Bume): 338.2 pA
Giants Frequency, Mean ([2]; bumetanide 10 μM, 15-30 min, table value, unit not given): 0.10
n bursts, Mean [2, 7]: 0.2
n giants (>200 pA), Mean [2, 7]: 5.6
decrease of the mean total current charge ([2]; bumetanide 10 μM, 15-30 min vs before bumetanide, P=0.0002): 49%
number of individual giant GABAA sPSCs still present during the three-minutes sequence analyzed ([2]; bumetanide 10 μM, versus 237 before bumetanide): 42 events

Compound: N[C@@H](Cc1ccc(O)c(O)c1)C(=O)O [L Dopa]
effect on the gigantic current pattern (in words) [3]: alleviate this pattern
